Experimental data taken from PMC12461339, “Benzoylselenoureas: A Novel Dual-Action Inhibitor Targeting Fungal Growth and Urease Activity in Cryptococcus neoformans” (ACS Omega, 2025).
In brackets after ≈: the same amount, converted by molar mass. Several values for one entry are separate records, joined by “and”; a condition that tells them apart may be missing. Equal values may be shown once. Read-outs that look alike come from different tables or passages of the source.

Tests used:
[1] = target: T1, C. neoformans urease (Cryptococcus neoformans, UniProt O13465); assay: Urease activity in crude protein extract, indophenol method; type: biochemical; settings: ureIC50, BSU series
T1 construct: endogenous in cells; host or cells: Cryptococcus neoformans H99, lysed by sonication; dialysed and lyophilised soluble fraction (total protein)
T1 sequence (O13465 whole entry): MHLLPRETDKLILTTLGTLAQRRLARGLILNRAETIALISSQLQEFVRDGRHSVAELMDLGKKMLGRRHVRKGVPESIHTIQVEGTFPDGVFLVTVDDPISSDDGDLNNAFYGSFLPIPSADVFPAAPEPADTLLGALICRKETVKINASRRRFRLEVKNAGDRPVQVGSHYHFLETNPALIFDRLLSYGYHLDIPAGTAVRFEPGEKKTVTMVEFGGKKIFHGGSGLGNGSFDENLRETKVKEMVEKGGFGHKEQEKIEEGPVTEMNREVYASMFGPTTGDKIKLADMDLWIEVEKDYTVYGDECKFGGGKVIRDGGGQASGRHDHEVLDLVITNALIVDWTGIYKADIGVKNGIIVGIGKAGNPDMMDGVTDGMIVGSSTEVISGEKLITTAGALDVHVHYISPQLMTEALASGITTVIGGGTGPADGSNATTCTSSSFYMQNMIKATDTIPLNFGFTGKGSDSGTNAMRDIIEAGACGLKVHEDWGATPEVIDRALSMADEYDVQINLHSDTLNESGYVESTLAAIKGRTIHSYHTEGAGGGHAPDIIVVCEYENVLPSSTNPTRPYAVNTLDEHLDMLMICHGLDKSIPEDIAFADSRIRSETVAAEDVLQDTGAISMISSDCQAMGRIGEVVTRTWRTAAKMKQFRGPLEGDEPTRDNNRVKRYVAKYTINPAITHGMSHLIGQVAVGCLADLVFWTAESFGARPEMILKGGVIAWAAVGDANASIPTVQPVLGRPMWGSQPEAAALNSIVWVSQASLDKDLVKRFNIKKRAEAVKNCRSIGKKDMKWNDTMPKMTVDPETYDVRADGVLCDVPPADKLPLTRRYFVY
Description: C. neoformans H99 yeasts were cultivated in 100 mL of Christensen broth for 72 h at 35 °C by shaking at 200 rpm for the obtention of urease as previously described. Briefly, the yeasts were ruptured using a lysis buffer (40 mM Tris-HCl, 20 mM dithiothreitol, 4% Triton X-100, 1 mM ethylenediaminetetraacetic acid, 2 mM phenylmethylsulfonyl fluoride, protease inhibitor cocktail) and an ultrasonic sonicator. After centrifugation, the soluble fraction was dialyzed in a dialysis membrane submerged in 10 mM sodium phosphate buffer, pH 7.0; the sample was lyophilized and stored at −20 °C. Before the assay, the sample was resuspended in 1 mL of sodium phosphate buffer (10 mM, pH 7.0), and the total protein was quantified by the Bradford method.
The urease activity was determined by the indophenol method. In a 96-well microplate, 10 μL of 100 mM urea was added to 45 μL of total protein and 45 μL of BSU1-BSU11 (concentrations of 0.06–1000 μg/L) in phosphate buffer. The reaction was maintained for 10 min under shaking at 600 rpm, at room temperature. Then, 45 μL of solution A (1% phenol; 0.005% sodium nitroprusside) and 70 μL of solution B (0.5% sodium hydroxide; 0.1% sodium hypochlorite) were immediately added to the wells in the dark and incubated for 5 min at 50 °C under shaking at 600 rpm. Urease activity was quantified by measuring absorbance at 670 nm. The inhibitory concentration capable of inhibiting 50% of urease activity (ureIC50) was determined by nonlinear regression calculation using the GraphPad Prism 5.0 software.

[2] = target: T2, yeast urease activity (Cryptococcus neoformans, UniProt O13465); assay: Inhibition of yeast urease activity in urea (Christensen) medium, colour change (MICure); type: cell-based
T2 construct: endogenous in cells; host or cells: Cryptococcus neoformans H99 (ATCC 208821) yeasts in Christensen urea broth
T2 sequence (O13465 whole entry): as above
Description: The inhibitory activity against yeast urease was assessed using Christensen’s medium, which contains urea to induce URE1 gene expression. […] Even in the presence of fungal growth, inhibition of urease activity was evidenced by the absence of medium color change, indicating suppressed ammonia production.
(§1) C. neoformans H99 (or ATCC 208821), a standard strain, was used to evaluate the antifungal activity of BSU1-BSU11 and BTU1-BTU11 compounds using the broth microdilution method. The assay was performed in two different culture media: the standard medium RPMI 1640 buffered with […] (RMPI), and the Christensen broth (urea medium: 1 g/L peptone, 1 g/L dextrose, 5 g/L sodium chloride, 2 g/L potassium phosphate, 20 g/L urea, 12 mg/L phenol red, pH 7.0). The compounds were dissolved in dimethyl sulfoxide (DMSO) and diluted in both media, obtaining final concentrations from 0.03 to 128 mg/L in a 96-well plate and final DMSO concentration below 0.5%, considered nontoxic. For assay, yeasts were distributed in each well to obtain a final inoculum of 0.5–2.5 × 10^3 CFU/mL, and the plate was incubated at 35 °C for 48 h.
(§2) The MIC values were determined in both media and were defined as the lowest concentrations of BSU1-BSU11 and BTU1-BTU11 that inhibited 50% of fungal growth visually compared with untreated yeasts (growth control). In addition, the urease activity was indicated by medium color change from orange to pink due to ammonia production and the MICure was defined as the lowest concentration that inhibited the urease activity by visual inspection in urea medium with no color changes. For both assays, two controls were included: untreated yeast group for observation of fungal growth pattern or intracellular urease activity, and wells containing only medium for assay sterility control.

[3] = system: C. neoformans H99; assay: Broth microdilution antifungal assay (MIC) in RPMI or urea medium; type: cell-based; settings: Cryptococcus neoformans
Description: as §1, §2

[4] = system: C. neoformans H99; assay: Minimum fungicidal concentration by subculturing after MIC reading; type: cell-based; settings: Cryptococcus neoformans
Description: After MIC readings, the MFC values were determined by subculturing, at 35 °C for 48 h, of all concentrations that inhibited the fungal growth; and then MFC was defined as the lowest concentration of the compound capable of reducing ≥99% viability of the initial fungal inoculum. ,

[5] = BSU series, 100% inhibition of yeast urease activity in urea medium
[6] = Table S1, urea medium, 100% inhibition of yeast urease activity
[7] = H99, 48 h, read-out: MIC RPMI, BSU series, 50% inhibition of fungal growth, RPMI medium, 35 °C, 48 h
[8] = H99, 48 h, read-out: MIC urea, BSU series, 50% inhibition of fungal growth, urea medium, 35 °C, 48 h
[9] = H99, Table S1, RPMI medium, C. neoformans H99
[10] = H99, Table S1, urea medium, C. neoformans H99
[11] = H99, BSU series, after assay in RPMI medium, ≥99% reduction of viability
[12] = H99, Table S1, RPMI medium line
[13] = H99, Table S1, urea medium line
[14] = BTU series, 100% inhibition of yeast urease activity in urea medium
[15] = H99, BTU series, 50% inhibition of fungal growth, RPMI medium, read-out: MIC RPMI
[16] = H99, BTU series, 50% inhibition of fungal growth, urea medium, read-out: MIC urea
[17] = H99, Table S1, RPMI medium, C. neoformans H99, read-out: MIC
[18] = H99, Table S1, urea medium, C. neoformans H99, read-out: MIC
[19] = H99, BTU series, after assay in RPMI medium, read-out: MFC
[20] = H99, Table S1, RPMI medium line, read-out: MFC
[21] = H99, Table S1, urea medium line, read-out: MFC
[22] = H99, read-out: MIC RPMI, BTU series, 50% inhibition of fungal growth, RPMI medium
[23] = H99, read-out: MIC urea, BTU series, 50% inhibition of fungal growth, urea medium
[24] = H99, BTU series, after assay in RPMI medium

| Structure (SMILES) | IC50 [1] | MICURE [2, 5] | MICURE [2, 6] | MIC [3, 7] | MIC [3, 8] | MIC [3, 9] | MIC [3, 10] | MFC [4, 11] | MFC [4, 12] | MFC [4, 13] | MICURE [2, 14] | MIC [3, 15] | MIC [3, 16] | MIC [3, 17] | MIC [3, 18] | MFC [4, 19] | MFC [4, 20] | MFC [4, 21] | other results |
| --- | --- | --- | --- | --- | --- | --- | --- | --- | --- | --- | --- | --- | --- | --- | --- | --- | --- | --- | --- |
| O=C(NC(=[Se])Nc1cccc(Br)c1)c1ccccc1 [BSU9] | 2.31 nM and 2.3 nM | 0.06 mg/L | 0.12 mg/L | 4 µg/mL (≈ 10.5 µM) | 0.12 µg/mL (≈ 0.314 µM) | 1 µg/mL (≈ 2.62 µM) | 0.12 µg/mL (≈ 0.314 µM) | 4 µg/mL (≈ 10.5 µM) | 1 µg/mL (≈ 2.62 µM) | 0.5 µg/mL (≈ 1.31 µM) | – | – | – | – | – | – | – | – | – |
| Cc1ccc(NC(=S)NC(=O)c2ccccc2)cc1 [BTU2] | – | – | ≤ 0.25 mg/L | – | – | – | – | – | – | – | <0.25 mg/L | > 128 µg/mL | 32 µg/mL (≈ 118 µM) | > 128 µg/mL | 32 µg/mL (≈ 118 µM) | > 128 µg/mL | > 128 µg/mL | > 128 µg/mL | – |
| O=C(NC(=S)Nc1ccc(Br)cc1)c1ccccc1 [BTU8] | – | – | 32 mg/L | – | – | – | – | – | – | – | <0.25 mg/L | > 128 µg/mL | 32 µg/mL (≈ 95.5 µM) | > 128 µg/mL | 64 µg/mL (≈ 191 µM) | > 128 µg/mL | > 128 µg/mL | > 128 µg/mL | – |
| O=C(NC(=[Se])Nc1ccc(Cl)cc1)c1ccccc1 [BSU6] | 3.02 nM | 0.25 mg/L | 8 mg/L | 16 µg/mL (≈ 47.4 µM) | 0.5 µg/mL (≈ 1.48 µM) | > 16 µg/mL | 8 µg/mL (≈ 23.7 µM) | 16 µg/mL (≈ 47.4 µM) | > 16 µg/mL | 16 µg/mL (≈ 47.4 µM) | – | – | – | – | – | – | – | – | – |
| COc1cccc(NC(=[Se])NC(=O)c2ccccc2)c1 [BSU5] | 14 nM | 0.12 mg/L | 0.12 mg/L | 1 µg/mL (≈ 3 µM) | 0.12 µg/mL (≈ 0.36 µM) | 8 µg/mL (≈ 24 µM) | 0.25 µg/mL (≈ 0.75 µM) | 1 µg/mL (≈ 3 µM) | 16 µg/mL (≈ 48 µM) | 0.25 µg/mL (≈ 0.75 µM) | – | – | – | – | – | – | – | – | – |
| CC(C)(C)c1ccc(NC(=[Se])NC(=O)c2ccccc2)cc1 [BSU3] | 0.95 nM and 0.946 nM | – | 16 mg/L | > 128 µg/mL | > 128 µg/mL | > 16 µg/mL | 16 µg/mL (≈ 44.5 µM) | > 128 µg/mL | > 16 µg/mL | > 16 µg/mL | – | – | – | – | – | – | – | – | – |
| O=C(NC(=S)Nc1ccccc1[N+](=O)[O-])c1ccccc1 [BTU10] | – | – | > 128 mg/L | – | – | > 128 µg/mL | > 128 µg/mL | – | > 128 µg/mL | > 128 µg/mL | >128 mg/L | – | – | – | – | – | – | – | MIC [3, 22]: > 128 µg/mL; MIC [3, 23]: > 128 µg/mL; MFC [4, 24]: > 128 µg/mL |
| O=C(NC(=S)Nc1cccc([N+](=O)[O-])c1)c1ccccc1 [BTU11] | – | – | > 128 mg/L | – | – | > 128 µg/mL | > 128 µg/mL | – | > 128 µg/mL | > 128 µg/mL | >128 mg/L | – | – | – | – | – | – | – | MIC [3, 22]: > 128 µg/mL; MIC [3, 23]: > 128 µg/mL; MFC [4, 24]: > 128 µg/mL |
| Cc1ccc(NC(=[Se])NC(=O)c2ccccc2)cc1 [BSU2] | 1.07 nM | 0.5 mg/L | 0.5 mg/L | 16 µg/mL (≈ 50.4 µM) | 0.5 µg/mL (≈ 1.58 µM) | 16 µg/mL (≈ 50.4 µM) | 0.5 µg/mL (≈ 1.58 µM) | 16 µg/mL (≈ 50.4 µM) | 16 µg/mL (≈ 50.4 µM) | 1 µg/mL (≈ 3.15 µM) | – | – | – | – | – | – | – | – | – |
| O=C(NC(=S)Nc1cccc(Br)c1)c1ccccc1 [BTU9] | – | – | 4 mg/L | – | – | – | – | – | – | – | 2 mg/L | > 128 µg/mL | 32 µg/mL (≈ 95.5 µM) | 32 µg/mL (≈ 95.5 µM) | 4 µg/mL (≈ 11.9 µM) | > 128 µg/mL | > 128 µg/mL | 32 µg/mL (≈ 95.5 µM) | – |
